# Target: T1, Inositol monophosphatase 1 (Bos taurus, UniProt P20456)
# T1 sequence (P20456 whole entry): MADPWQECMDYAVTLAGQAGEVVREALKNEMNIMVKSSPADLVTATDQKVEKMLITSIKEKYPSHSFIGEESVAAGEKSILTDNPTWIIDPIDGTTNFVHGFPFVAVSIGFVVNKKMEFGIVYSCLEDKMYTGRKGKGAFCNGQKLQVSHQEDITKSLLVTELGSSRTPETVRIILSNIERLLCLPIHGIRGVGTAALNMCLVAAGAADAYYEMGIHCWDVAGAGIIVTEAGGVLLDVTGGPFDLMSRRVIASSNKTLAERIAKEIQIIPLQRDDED
# Assay: Inhibitory activity against myo-inositol-1-phosphatase; call rule not given here
row,Structure (SMILES),IC50
1,O=S(=O)(O)O[C@@H]1[C@H](O)C[C@@H](O)C[C@H]1OCCCCc1ccccc1O,90 µM
2,O=P(O)(O)O[C@@H]1[C@H](O)C[C@@H](O)C[C@H]1OCCCc1ccccc1,0.8 µM
3,CC(C)OP(=O)(O)O[C@@H]1[C@H](O)C[C@@H](O)C[C@H]1OCCCCc1ccccc1O,50 µM
4,O=C1CCCCC1CCCCO[C@@H]1C[C@H](O)C[C@@H](O)[C@H]1OS(=O)(=O)O (some centres not stated),100 µM
5,O=P(O)(O)O[C@@H]1[C@H](O)C[C@@H](O)C[C@H]1OCCCCc1ccccc1O,0.3 µM
6,CC(=O)NS(=O)(=O)O[C@@H]1[C@H](O)C[C@@H](O)C[C@H]1OCCCCC1CCCCC1=O (some centres not stated),> 300 µM
7,NS(=O)(=O)O[C@@H]1[C@H](O)C[C@@H](O)C[C@H]1OCCCCC1CCCCC1=O (some centres not stated),200 µM
8,NS(=O)(=O)O[C@@H]1[C@H](O)C[C@@H](O)C[C@H]1OCCCCc1ccccc1O,> 300 µM
9,CP(C)(=O)O[C@@H]1[C@H](O)C[C@@H](O)C[C@H]1OCCCCc1ccccc1O,> 300 µM
10,CC(=O)NS(=O)(=O)O[C@@H]1[C@H](O)C[C@@H](O)C[C@H]1OCCCCc1ccccc1O,> 300 µM

# Target: T1, Inositol monophosphatase 1
# Assay: Compound was tested for inhibitory activity against myo-inositol-1-phosphatase; compound was not active at 300 uM
row,Structure (SMILES),IC50
1,NC(=O)O[C@@H]1[C@H](O)C[C@@H](O)C[C@H]1OCCCCc1ccccc1O,Not Active

# Target: T1, Inositol monophosphatase 1
# Assay: Compound was tested for inhibitory activity against myo-inositol-1-phosphatase; weak inhibitor
row,Structure (SMILES),IC50
1,O=C(O)CO[C@@H]1[C@H](O)C[C@@H](O)C[C@H]1OCCCCc1ccccc1O,> 300 µM

# Source: ChEMBL document CHEMBL1128840, “Synthesis of myo-inositol-1-phosphatase inhibitors in which the phosphate group is replaced by less polar groups” (Bioorg Med Chem Lett, 1995)
